Reference: US11267802B2 (BEBETTER MED INC., priority 2015, dated 2022)

How the values were obtained:
[1] = Pharmacokinetics in rats after oral administration; assay type: in vivo, SD rats
Procedure: (§1) Male SD rats weighing 250-300 g, or male beagles weighing 9-10 kg, were fasted overnight before the experiment. The object compounds were dissolved in 30% sulfobutylated beta-cyclodextrin (SBE-β-CD), and orally administrated to the rats at a dose of 20 mg/kg or to the beagles at a dose of 5 mg/kg. Blood samples were taken at 15 minutes, 30 minutes, 1 hour, 2 hours, 3 hours, 4 hours, 6 hours, 8 hours and 24 hours after administration. 0.3 ml of blood was collected at every time point, placed in a centrifuge tube containing K2-EDTA (ethylenediamine tetraacetic acid dipotassium) and centrifuged (2,000 g, 10 minutes, 4° C.) to collect plasma, which was then stored in an ultra cold storage freezer at −80° C. 50 μL of plasma sample was mixed with 5 μL of internal standard (IS), and then extracted with ethyl acetate. After vacuum drying, the residue was re-dissolved in acetonitrile. The sample was filtered and injected into LC-MS/MS for analysis.

[2] = test system: H1975 xenograft tumor; test: Potency assay of tumor model, 16 consecutive days; assay type: in vivo, Balb/C nude mice; conditions: oral; for inhibition of growth of H1975 xenograft tumor (in words): 30 mg/kg qd, 16 days
Procedure: (§2) Balb/C nude mice were purchased from Beijing Vital River Laboratory Animal Technology Co., Ltd., and housed in SPF animal room. The human non-small-cell lung cancer cell line H1975 in a culture dish was collected by trypsin-EDTA (0.25% trypsin, 1 mM EDTA), and then washed with a serum-free PBS solution. Lastly, the cells were implanted after diluted in a serum-free medium. Only the single cell suspension with a survival rate over 90% (Trypan blue rejection) can be used for injection. 5 million cells suspended in a 0.1 ml serum-free culture were injected into the front right flanking subcutaneous region of each mouse by using a 1 ml syringe and a 25G syringe needle, and the blood vessel was carefully avoided. The tumor size was measured in about one week after implantation. A caliper rule was used to measure the tumor size. The tumor volume was calculated by the following formula: tumor volume=(length×width^2)/2.
This experiment studied the inhibition of tumor growth in H1975 xenograft tumor model by the compounds 20, 50, 91, and 118. When the mean volume of H1975 tumor reached about 260 mm^3, the animals were divided into 5 oral administration groups, that is, excipient control group and groups of oral administration of compound 20, compound 50, compound 91, and compound 118, respectively (n=8/group). These compounds were dissolved in 30% sulfobutylated beta-cyclodextrin (SBE-β-CD) and 1N HCl (pH 3-4). […]

[3] = test system: H1975 xenograft tumor; test: Potency assay of tumor model, dose-effect relationship, 22 consecutive days; assay type: in vivo, Balb/C nude mice; conditions: for Tumor inhibition T/C value (%) / Weight change (%): po, qd
Procedure: as §2
Further assay was performed to assess the dose-effect relationship of the inhibition of H1975 transplantation tumor growth by the compounds 51 and 91. […] These compounds were dissolved in 30% sulfobutylated beta-cyclodextrin (SBE-β-CD) and 1N HCl (pH 3-4), respectively. […]

[4] = Pharmacokinetics in beagles after oral administration; assay type: in vivo; conditions: male, beagle, dog, 5 mg/kg, plasma
Procedure: as §1

[5] = test system: H1975; test: Inhibition assay on tumor cell proliferation (CellTiter-Glo), H1975; assay type: cell-based, Human; conditions: Homo sapiens, NCI-H1975; H1975 (L858R and T790M EGFR double mutation), 72 hours, 10% bovine serum
[6] = test system: H358; test: Inhibition assay on tumor cell proliferation (CellTiter-Glo), H358; assay type: cell-based, Human; conditions: Homo sapiens, NCI-H358; H358 (wild-type EGFR), 72 hours, 10% bovine serum
In short: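 Viability from ATP content by CellTiter-Glo luminescence; inhibition normalised to DMSO (max) and medium-only (min) wells, IC50 by sigmoidal dose-response fitting. LOVO and H358 carry wild-type EGFR; HCC827 has exon 19 deletion.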

[7] = biological target: T1, EGFR T790M/L858R (Homo sapiens, UniProt P00533, L858R/T790M); test: Mutant EGFR T790M/L858R activity inhibition assay (Caliper mobility shift); assay type: biochemical; conditions: read-out: enzyme activity inhibition (IC50) EGFR T790M/L858R
T1 construct: purchased Invitrogen PR8911A
T1 sequence (P00533 25-1210 T790M/L858R): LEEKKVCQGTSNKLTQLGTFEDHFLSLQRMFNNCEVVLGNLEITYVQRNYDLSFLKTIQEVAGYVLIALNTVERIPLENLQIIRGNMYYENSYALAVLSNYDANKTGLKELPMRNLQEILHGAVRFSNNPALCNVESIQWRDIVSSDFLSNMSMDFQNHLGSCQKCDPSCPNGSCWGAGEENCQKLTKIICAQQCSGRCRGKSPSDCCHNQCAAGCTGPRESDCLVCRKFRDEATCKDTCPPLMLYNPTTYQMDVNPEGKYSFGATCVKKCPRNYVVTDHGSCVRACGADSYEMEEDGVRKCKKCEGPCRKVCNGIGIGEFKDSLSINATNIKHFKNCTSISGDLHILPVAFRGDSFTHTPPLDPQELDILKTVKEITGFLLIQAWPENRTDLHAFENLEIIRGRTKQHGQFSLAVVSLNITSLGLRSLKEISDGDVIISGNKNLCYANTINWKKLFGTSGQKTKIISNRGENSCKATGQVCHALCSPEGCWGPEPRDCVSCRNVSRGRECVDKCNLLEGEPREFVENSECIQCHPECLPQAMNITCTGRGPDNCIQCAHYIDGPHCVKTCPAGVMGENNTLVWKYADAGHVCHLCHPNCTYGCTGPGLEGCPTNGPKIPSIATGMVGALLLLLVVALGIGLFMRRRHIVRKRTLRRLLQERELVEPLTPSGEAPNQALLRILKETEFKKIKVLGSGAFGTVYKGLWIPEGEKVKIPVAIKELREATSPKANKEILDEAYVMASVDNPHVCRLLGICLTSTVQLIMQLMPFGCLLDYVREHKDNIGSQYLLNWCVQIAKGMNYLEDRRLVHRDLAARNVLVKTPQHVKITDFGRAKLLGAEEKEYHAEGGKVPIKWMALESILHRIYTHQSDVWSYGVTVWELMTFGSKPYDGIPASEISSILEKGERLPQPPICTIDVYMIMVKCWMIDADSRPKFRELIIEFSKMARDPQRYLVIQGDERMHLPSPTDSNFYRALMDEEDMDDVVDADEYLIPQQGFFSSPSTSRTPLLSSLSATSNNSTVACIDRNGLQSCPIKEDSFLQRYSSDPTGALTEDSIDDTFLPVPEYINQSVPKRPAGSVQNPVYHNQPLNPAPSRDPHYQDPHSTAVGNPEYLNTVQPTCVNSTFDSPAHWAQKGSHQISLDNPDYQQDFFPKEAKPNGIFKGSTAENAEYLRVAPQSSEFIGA
In short: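 Compound added in 10% DMSO at 5-fold final concentration; substrate conversion read by Caliper mobility shift. Inhibition = (max−conversion)/(max−min)×100, with max from DMSO no-compound wells and min from no-enzyme wells; IC50 from fitted concentration–response curve.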

[8] = test system: LOVO; test: Inhibition assay on tumor cell proliferation (CellTiter-Glo), LOVO; assay type: cell-based, Human; conditions: Homo sapiens; LOVO (wild-type EGFR), 72 hours, 10% bovine serum
Procedure: By using a CellTiter-Glo luminescence cell viability test kit (Promega, # G7572), the content of adenosine triphosphate (ATP) was determined to assess the cell viability.
Human colon cancer cell line LOVO and human non-small-cell lung cancer H358 express wild-type EGFR. Human non-small-cell lung cancer cell line HCC827 carries deletion mutation in exon 19 (ex19del). Those cell lines are purchased from Shanghai Fudan IBS Cell Resource Center and American Tissue Culture Collection (ATCC).
The assay procedure is as follows. The cells in a cell culture plate were digested with a pancreatic enzyme, re-suspended in a DPBS culture medium, and had the cell density counted by Scepter automated cytometer (Millipore # PHCC00000). The cells were diluted to a solution of 44,000 cells per ml. The cell solution with adjusted density was added to the cell assay plate at 90 microliters per well. The plate was placed in an incubator with 5% CO2 at 37° C. for 24 hours of incubation, and then added with different concentrations of subject compounds. The cells were incubated for 72 hours with the compounds in presence of 10% bovine serum. The content of ATP was determined by a CellTiter-Glo® Luminescent Cell Viability Assay kit (see the manufacturer's instruction for details) to evaluate cell-growth inhibition.
Briefly, 30 μl of CellTiter-Glo® reagent was added to each well, and then shaken for 10 minutes to induce cell lysis. The fluorescent signal was detected and recorded by Fluoroskan Ascent FL (Thermo). The max signal value was obtained from the cells treated by dimethyl sulfoxide for 72 hours. The min signal value was obtained from the medium alone (the number of the cells was 0). Inhibitory rate %=(max signal value−compound signal value)/(max signal value−min signal value)×100. The data was processed by GraphPad Prism V5.0 software (GraphPad Software, San Diego, Calif.). Sigmoidal dose-response curve fitting was performed to calculate the IC50 value.

[9] = male, SD, rat, 20 mg/kg, plasma

SMILES	melting point [°C]	IC50 [5] [µM]	IC50 [6] [µM]	IC50 [7] [µM]	IC50 [8] [µM]	inhibition of growth of H1975 xenograft tumor (in words) [2]	further results
C=CC(=O)Nc1cc(Nc2nccc(-n3ccc4ccccc43)n2)c(OC)cc1N1CC[C@H](N(C)C)C1 [Compound 78, (S)—N-(5-((4-(1H-indol-1-yl)pyrimidin-2-yl)amino)-2-(3-(dimethylamino)pyrrolidin-1-yl)-4-methoxyphenyl)acrylamide]	161 to 162	0.01 to 0.05	> 1	0.001 to 0.01	> 1		
C=CC(=O)Nc1cc(Nc2nccc(-n3ccc4ccccc43)n2)c(OC)cc1N1CC[C@@H](N(C)C)C1 [Compound 79, (R)—N-(5-((4-(1H-indol-1-yl)pyrimidin-2-yl)amino)-2-(3-(dimethylamino)pyrrolidin-1-yl)-4-methoxyphenyl)acrylamide]	161 to 162	0.05 to 0.1	> 1	< 0.001	> 1		
C=CC(=O)Nc1cc(Nc2nccc(-n3c(=O)n(C)c4ccccc43)n2)c(C)cc1N(C)CCN(C)C [Compound 118, N-(2-((2-(dimethylamino)ethyl) (methyl)amino)-4-methyl-5-((4-(3-methyl-2-oxo-2,3-dihydro-1H-benzo[d]imidazol-1-yl)pyrimidin-2-yl)amino)phenyl)acrylamide]	208 to 210	< 0.01	0.1 to 1	< 0.001		tumor regression	

Now from value to compound, other results behind:

melting point [°C]	IC50 [5] [µM]	IC50 [6] [µM]	IC50 [7] [µM]	IC50 [8] [µM]	SMILES	inhibition of growth of H1975 xenograft tumor (in words) [2]	further results
208 to 210	< 0.01	0.1 to 1	< 0.001		C=CC(=O)Nc1cc(Nc2nccc(-n3c(=O)n(C)c4cc(F)ccc43)n2)c(OC)cc1N(C)CCN(C)C [Compound 50, N-(2-((2-(dimethylamino)ethyl)(methyl)amino)-5-((4-(5-fluoro-3-methyl-2-oxo-2,3-dihydro-1H-benzo[d]imidazol-1-yl)pyrimidin-2-yl)amino)-4-methoxyphenyl)acrylamide]	tumor regression	absorption / blood exposure after oral administration (in words) [1]: well absorbed, with high blood exposure; AUC(0-inf) [1, 9]: 598 ng·h/mL; Cmax [1, 9]: 173 ng/mL; Tmax [1, 9]: 1 h; half-life [1, 9]: 3.1 h; AUC(0-t) ([1]; male, SD, rat, 20 mg/kg, plasma, read-out: AUC0-24): 561 ng·h/mL; T/C value ([2]; 30 mg/kg qd as printed, 16 days after administration): −97%; Tumor inhibition T/C value (%) ([3]; 10 mg/kg, 22 consecutive days): −65%; Weight change (%) ([3]; 10 mg/kg, 22 consecutive days): 0.0%; Tumor inhibition T/C value (%) ([3]; 20 mg/kg, 22 consecutive days): −95%; Weight change (%) ([3]; 20 mg/kg, 22 consecutive days): −2.0%; Tumor inhibition T/C value (%) ([3]; 40 mg/kg, 22 consecutive days): −100%; Weight change (%) ([3]; 40 mg/kg, 22 consecutive days): −4.4%; tumor outcome (in words) ([3]; high dose (40 mg/kg), 22 consecutive days): the tumor disappeared completely; dose dependence of inhibition of H1975 xenograft tumor growth (in words) ([3]; oral, 10, 20 and 40 mg/kg): dose dependently inhibited; AUC(0-inf) [4]: 1470 ng·h/mL; Cmax [4]: 428 ng/mL; Tmax [4]: 1 h; half-life [4]: 1.45 h; AUC(0-t) ([4]; read-out: AUC0-24): 1420 ng·h/mL
151 to 153	< 0.01	> 1	0.001 to 0.01	> 1	C=CC(=O)Nc1cc(Nc2nccc(-n3ccc4ccccc43)n2)c(OC)cc1N(C)CCN1CCCC1 [Compound 80, N-(5-(4-(1H-indol-1-yl)pyrimidin-2-ylamino)-4-methoxy-2-(methyl(2-(pyrrolidin-1-yl)ethyl)amino)phenyl)acrylamide]		
